In patent US20200011852A1, “METHODS FOR PREDICTING THE ANTICANCER THERAPEUTIC RESPONSE OF L-ASCORBIC ACID” (priority 2018, published 2020):

Experiments:
Assay type in all cases: cell-based, human
[1] = test system: SVCT-2 high-expression cells; test: c-Myc localization by immunocytochemistry, SVCT-2 high-expression cell lines; details: phloretin treated together with vitamin C
Protocol: (§1) Cells treated with vitamin C were immobilized with 4% paraformaldehyde for 10 minutes and were washed with PBS 3 times for 5 minutes, and then permeable buffer (Biolegend, San Diego, Calif., USA) was treated for 10 minutes. Then, cells were washed with PBS 3 times and were cultured with anti-c-Myc (1:500; NB200-108, Novus biologics) antibody at 4° C. overnight. Then, after washing with PBS 4 times, cells were cultured with a secondary anti-mouse-TRITC (1:1000; ab6786; Abcam) conjugated antibody.
In order to confirm the cell proliferation by the hormetic response in cancer cell lines, the cell proliferation confirmation experiment through c-Myc was conducted.
Specifically, after smearing cells on cover glass and culturing them, vitamin C was treated and after washing with PBS, an antigen with […] as antigens was attached to cells, and it was confirmed through fluorescence.

[2] = test system: SVCT-2 high-expression cell lines, Sw480 and Sw620; test: Western blot of Bax, c-Myc and Cyclin D1, SVCT-2 high-expression cell lines
Protocol: (§2) Protein was extracted from frozen tissue using PRO-PREP protein extraction kit according to the instruction of the manufacturer. The protein concentration was measured using Bradford assay (Bio-RAD, Munich, Germany)
(§3) After denaturalizing protein 30 μg in sample buffer at 95° C. for 6 minutes, samples were loaded on 12% SDS-polyacrylamide gel and were transferred to a nitrocellulose blotting membrane. Subsequently, the membrane was blocked with 5% skim milk in Tris-buffered saline. Then, after washing it with Tris-buffered saline-0.10% Tween 20 three times, the membrane was cultured at 4° C. overnight with anti-cyclin D1 (1:2500; NB600-584; Novus biologics), anti-c-Myc (1:2500; NB200-108; Novus biologics), anti-Bax (1:2000; 2774; Cell Signaling Technology, Beverly, Mass., USA), and anti-beta-actin (1:5000; ab20272; Abcam, Cambridge, Mass., USA) antibodies. Then, after washing it with Tris-buffered saline-0.10% Tween 20 4 times for 20 minutes, the membrane was cultured with a secondary anti-rabbit, anti-rat or anti-goat antibody for 1 hour. After additional washing, immunoreactive bands exposed to ECL substrate (Pierce, Rockford, Ill., USA) and X-ray film (Agfa-Gevaert N.V, Septestraat, Mortsel, Belgium) were detected.
After treating vitamin C 10 μM and phloretin to SVCT-2 high-expression cell lines, Sw480 and Sw620 at the same time, the western blot analysis of Bax, c-Myc and Cyclin D1 in cells was conducted, and the result was shown in FIG. 6c and FIG. 6d.

[3] = test system: SVCT-2 high-expression cell lines, Sw620 and Sw480; test: qRT-PCR gene expression analysis, SVCT-2 high-expression cell lines
Protocol: (§4) According to the method provided by the manufacturer, the total RNA of cells was extracted using TRI reagent (MRC; Molecular Research Center, Cincinnati, Ohio, USA). The RNA concentration was determined using a spectrophotometer reading the absorbance at 260 nm. cDNA was synthesized using mML-V reverse transcriptase (Bioneer Co, Daejeon, Republic of Korea) according to the protocol provided by the manufacturer. Then, using SYBR Premix Ex Taq (TaKaRa, Otsu, Shinga, Japan) and Rotor-Gene Q system (Qiagen, Chadstone, Victoria, Australia), quantitative real-time PCR was carried out. Data were analyzed using Rotor-Gene Q series software version 2.3.1 (Qiagen).
(§5) In order to confirm the apoptosis and hormetic proliferation response by vitamin C, the quantitative real-time polymerase chain reaction (qRT-PCR) gene-expression analysis of p53, Cyclin D1, E2F1 and Ki-67 genes was conducted using the method of Experimental example 3, and the result was shown in FIG. 2c to FIG. 2f.
After treating vitamin C 10 μM and phloretin to SVCT-2 high-expression cell lines, Sw480 and Sw620 at the same time, the relative expression of Ki-67 and E2F1 used as cancer cell proliferation markers was measured using the qRT-PCR of Example 1, and the result was shown in FIG. 5e and FIG. 5f.

[4] = test system: Sw620 and Sw480 cell lines; test: ROS production by DCF-Da staining (FACS), SVCT-2 high-expression cell lines
Text: In order to confirm ROS production in SVCT-2 high-expression cell lines in the apoptosis response and hormetic response, and more specifically confirm the cause of the result of Example 5, the present inventors investigated ROS production using DCF-Da staining in Sw620 cell line and Sw480 cell line, and the result was shown in FIG. 5c and FIG. 5d.

[5] = test system: SVCT-2 high-expression cell lines, Sw480 and Sw620; test: Cell viability of Sw480 and Sw620 treated with vitamin C and/or phloretin; details: for cell response (cell viability): Sw620 and Sw480
Protocol: (§6) The cell viability was measured by Neutral red (sigma) assay. Cells (1×10^4/each well) were inoculated on a 96-well plate and were cultured for 24 hours and were treated with vitamin C for 4 hours, and then were washed with PBS (Pan Biotech), and were further cultured in RPMI1640 without vitamin C for 20 hours. They were washed twice and were stained.

[6] = test system: SVCT-2 high-expression cell lines, Sw480 and Sw620; test: Vitamin C absorption in Sw480 and Sw620 with the SVCT family inhibitor phloretin; details: phloretin 20 μM together with vitamin C 1 mM
Protocol: In order to measure the vitamin C absorption of each colorectal cancer cell line, the absorption of vitamin C in cells was analyzed with High Performance Liquid Chromatography (HPLC), and the result was shown in FIG. 1c.
Then, after treating 1 mM vitamin C, or treating vitamin C 1 mM and phloretin 20 μM together to each cell line of the SVCT-2 high-expression cell lines, Sw480 and Sw620, the vitamin C absorption was measured, and the result was shown in FIG. 9a.
The experimental results measured according to the method for measuring the vitamin C absorption of SVCT-2 expression cell lines of Example 1-3, after treating various concentrations (0 mM or 1 mM) of vitamin C and treating 1 mM vitamin C and 20 μM phloretin, for SVCT-2 high-expression cell lines, Sw480 and Sw620 were shown in FIG. 9a.

HCT15 and DLD-1 = test: Western blot of Bax, c-Myc and Cyclin D1, SVCT-2 low-expression cell lines
Protocol: as §2, §3
In order to investigate the apoptosis and proliferation of cancer cells by vitamin C treatment in the protein expression level, a low concentration or high concentration of vitamin C was treated to SVCT-2 low-expression cell lines and the western blot analysis of Bax, c-Myc, and Cyclin D1 was conducted using the method of Experimental example 4, and the result was shown in FIG. 4c and FIG. 4d.

[7] = test system: SVCT high-expression cell lines (Sw480, Sw620, LoVo, SNU-C4); test: Cell viability (Neutral red), vitamin C concentration gradient, SVCT-2 high-expression cell lines
Protocol: as §6
(§7) In order to research a role conducted by vitamin C treated at a high concentration or low concentration to cancer cell lines, after treating vitamin C at various concentrations according to a concentration gradient to each cell line, the cell viability analysis was conducted using the method of Experimental example 2.
As same as the SVCT low-expression cell lines, after treating vitamin C to SVCT high-expression cell lines (Sw480, Sw620, LoVo, SNU-C4) according to a concentration gradient (0 μm to 2 mM), the cell viability was measured, and the result was shown in FIG. 2b. It was confirmed that in case of high-expression cell lines, when treating a low concentration of vitamin C, the cell viability was reduced, and as the treated concentration of vitamin C increased, the cell viability was reduced more.

[8] = test system: HCT15 and DLD-1 cell lines; test: c-Myc localization by immunocytochemistry, SVCT-2 low-expression cell lines; details: vitamin C 1 mM or 10 μM
Protocol: as §1
In order to investigate the expression of cancer proliferation markers in SVCT-2 low-expression cell lines and localization where c-Myc is present in cancer cell lines, after treating vitamin C of 1 mM or 10 μM to each SVCT-2 low-expression cell line, HCT15 and DLD-1 cell lines, the immunocytochemistry of Experimental example 5 was conducted, and the result was shown in FIGS. 4a and 4b.

[9] = test system: SVCT-2 low-expression cell lines, DLD-1 and HCT15; test: qRT-PCR gene expression analysis, SVCT-2 low-expression cell lines
Protocol: as §4, §5

[10] = test system: SVCT-2 low-expression cell lines (DLD1 and HCT15); test: ROS production by DCF-Da staining (FACS), SVCT-2 low-expression cell lines; details: 15 minutes, DLD-1 and HCT15
Protocol: In order to investigate ROS production, when treating vitamin C of 10 μM or 1 mM to SVCT-2 low-expression cell lines (DLD1 and HCT15), after treating each dose of vitamin C to SVCT-2 low-expression cell lines, they were stained with DCF-Da, and the ROS measurement result was shown in FIG. 3a and FIG. 3b.

[11] = test system: colorectal cancer cell lines (Sw480, Sw620, LoVo, SNU-C4, HCT116, SNU-05, CoLo-205, HCT15, DLD-1); test: Cell viability (Neutral red) of colorectal cancer cell lines treated with 1 mM vitamin C; details: nine colorectal cancer cell lines
Protocol: Human colorectal cancer cells were cultured in RPMI1640 medium Gilbco, Cergy Pontoise, France) containing 10% bovine fetal serum (PAN Biotech, Aidenbach, Germany) and 1% Penstrep (PAN Biotech) in a humidified incubator comprising 5% CO2 under the condition of 37° C. Vitamin C was purchased from BCWORLD PHARM (BCWORLD PHARM. CO, Seoul, Korea), and phloretin was purchased from sigma Aldrich (Sigma, St. Louis, Mo., USA).
The human colorectal cancer cell lines used in the experiment were Sw480, Sw620, HCT116, HCT15, SNU-C4, SNU-05, DLD-1, LoVo, and CoLo-205 cell lines commonly used in the related art. All the colorectal cancer cell lines used in the experiment of the present invention were received from Dr. Yu Byung-Chul of National Cancer Center.
as §6
The cell viability of each colorectal cancer cell line was measured using the method of Experimental example 2, and the result was shown in FIG. 1b.

[12] = test system: SVCT-2 low-expression cell lines (HCT116, CoLo-205, HCT15, DLD-1); test: Cell viability (Neutral red), vitamin C concentration gradient, SVCT-2 low-expression cell lines
Protocol: as §6, §7
After treating vitamin C to SVCT-2 low-expression cell liens (HCT116, CoLo-205, HCT15, DLD-1) according to a concentration gradient (0 μm to 2 mM), the cell viability was measured, and the result was shown in FIG. 2a.

[13] = 10 μM vitamin C and phloretin at the same time
[14] = vitamin C 10 μM and phloretin at the same time, Sw620 and Sw480
[15] = 10 μM or 1 mM vitamin C without phloretin
[16] = vitamin C 10 μM or 1 mM, Sw620 and Sw480
[17] = low concentration (10 μM) vitamin C, DLD-1 and HCT15

## O=C(CCc1ccc(O)cc1)c1c(O)cc(O)cc1O [phloretin]
[1]
  localization of increased c-Myc (immunocytochemistry): present in cytoplasm not a nucleus
[2]; [13]
  expression of C-Myc (western blot): increased
  expression of cyclin D1 (western blot): increased
[2]; phloretin treatment (with 10 μM vitamin C)
  Bax expression (western blot): did not change remarkably
[3]; [14]
  expression of E2F1 (qRT-PCR): increased
  expression of Ki-67 (qRT-PCR): increased
[4]; 20 μM phloretin with 10 μM vitamin C
  ROS production (DCF-Da): not sufficiently produced
[5]; concentration of phloretin used in the experiment (20 μM; 0-40 μM tested), Sw480 and Sw620
  cytotoxicity of phloretin (cell viability assay): no cell self-toxicity
[5]; phloretin together with vitamin C 10 μM
  cell response (cell viability): hormetic proliferation response occurred
[6]
  intracellular capacity of vitamin C (vitamin C absorption): reduced

## O=C1O[C@H]([C@@H](O)CO)C(O)=C1O [vitamin C, L-ASCORBIC ACID]
HCT15 and DLD-1; 10 μM vitamin C
  expression of c-Myc (western blot): increased
  expression of cyclin D1 (western blot): increased
HCT15 and DLD-1; 1 mM vitamin C
  expression of c-Myc (western blot): reduced
  expression of cyclin D1 (western blot): reduced
HCT15 and DLD-1; vitamin C 1 mM and 10 μM
  Bax expression (western blot): did not significantly change
[7]; as the treated concentration of vitamin C increased (up to 2 mM)
  cell viability: reduced more
[7]; low concentration of vitamin C
  cell viability: reduced
[8]
  c-Myc localization (immunocytochemistry): almost localized in cytoplasm
[2]; [15]
  expression of C-Myc (western blot): significantly reduced
  expression of cyclin D1 (western blot): significantly reduced
[2]; vitamin C treatment (10 μM or 1 mM)
  Bax expression (western blot): increased
[3]; 10 μM and 1 mM, SVCT-2 high-expression cell lines
  expression of p53 (qRT-PCR): increased
[3]; [16]
  expression of E2F1 (qRT-PCR): reduced
  expression of Ki-67 (qRT-PCR): reduced
  expression of cyclin D1 (qRT-PCR): reduced
[9]; 10 μM and 1 mM tested, SVCT-2 low-expression cell lines
  expression of p53 (qRT-PCR): induced only in case of treatment of 1 mM vitamin C
[9]; [17]
  expression of E2F1 (qRT-PCR): increased
  expression of Ki-67 (qRT-PCR): increased
  expression of cyclin D1 (qRT-PCR): increased
[10]; 10 μM vitamin C
  ROS production (DCF-Da): not produced
[10]; 1 mM vitamin C
  ROS production (DCF-Da): produced
[4]; 1 mM vitamin C or 10 μM vitamin C
  ROS production (DCF-Da): produced
[11]
  cytotoxicity of vitamin C (cell viability): proportional to SVCT-2 expression
[5]; vitamin C 1 mM and 10 μM, without phloretin
  cell response (cell viability): apoptosis response was induced
[12]; vitamin C 1.0 mM to 2.0 mM or more
  cell viability: dramatically reduced
[12]; vitamin C less than 10 μM
  cell viability: over 100%
